Publication PMC9737772, “Synthesis and Anti-Inflammatory Activity of 1-Methylhydantoin Cinnamoyl Imides” (Molecules, 2022)
Entries after “also recorded” stand apart in the source; their conditions may differ.

Assays:
[1] = biological target: T1, ovine cyclooxygenase-1 (COX-1) (Ovis aries, UniProt P05979); experiment: In vitro COX inhibition assay (enzyme immunoassay kit), COX-1; format: biochemical; settings: ovine COX-1, enzyme immunoassay kit
T1 construct: purchased Cayman Chemical 560131
T1 sequence (P05979 25-600): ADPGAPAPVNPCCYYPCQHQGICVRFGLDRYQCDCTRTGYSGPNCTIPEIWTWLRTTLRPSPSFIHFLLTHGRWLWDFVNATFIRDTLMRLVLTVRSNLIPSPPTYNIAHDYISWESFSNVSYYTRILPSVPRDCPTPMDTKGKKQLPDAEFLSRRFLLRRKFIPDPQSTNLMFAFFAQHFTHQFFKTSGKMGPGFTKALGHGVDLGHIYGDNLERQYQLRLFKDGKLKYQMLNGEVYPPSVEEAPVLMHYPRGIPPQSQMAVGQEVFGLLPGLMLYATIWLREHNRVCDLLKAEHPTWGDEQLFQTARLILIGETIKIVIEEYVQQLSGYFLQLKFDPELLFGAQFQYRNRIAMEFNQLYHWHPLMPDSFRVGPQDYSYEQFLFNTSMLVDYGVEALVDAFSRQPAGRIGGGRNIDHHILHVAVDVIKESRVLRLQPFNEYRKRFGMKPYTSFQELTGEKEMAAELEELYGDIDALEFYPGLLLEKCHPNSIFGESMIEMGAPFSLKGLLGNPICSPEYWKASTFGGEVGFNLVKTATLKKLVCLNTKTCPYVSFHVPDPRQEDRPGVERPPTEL
Method: (§1) The inhibition ability of 1-methylhydantoin cinnamic imides to ovine cyclooxygenase-1 (COX-1) and cyclooxygenase-2 (COX-2) was determined using an enzyme immunoassay kit. […] The Cell Counting Kit-8 (CCK-8) method was used to detect the cytotoxicity of the five target compounds (1–5) on lipopolysaccharide (LPS)-induced RAW264.7 cells. When the concentrations of compounds 1, 3 and 5 are lower than 20 μM, and when the concentrations of compounds 2 and 4 are lower than 80 μM, the survival rate of RAW264.7 cells is more than 95%, which has no obvious damage to cell survival and can be used for subsequent in vitro anti-inflammatory activity experiments to provide the basis.
(§2) The inhibition ability of ovine COX-1 and COX-2 was determined using an enzyme immunoassay kit (560131, Cayman Chemical, Ann Arbor, MI, USA) following the manufacturer’s instructions.

[2] = biological target: T2, ovine cyclooxygenase-2 (COX-2); experiment: In vitro COX inhibition assay (enzyme immunoassay kit), COX-2; format: biochemical; settings: ovine COX-2, enzyme immunoassay kit
T2 construct: purchased Cayman Chemical 560131
T2 sequence (P35354 18-604): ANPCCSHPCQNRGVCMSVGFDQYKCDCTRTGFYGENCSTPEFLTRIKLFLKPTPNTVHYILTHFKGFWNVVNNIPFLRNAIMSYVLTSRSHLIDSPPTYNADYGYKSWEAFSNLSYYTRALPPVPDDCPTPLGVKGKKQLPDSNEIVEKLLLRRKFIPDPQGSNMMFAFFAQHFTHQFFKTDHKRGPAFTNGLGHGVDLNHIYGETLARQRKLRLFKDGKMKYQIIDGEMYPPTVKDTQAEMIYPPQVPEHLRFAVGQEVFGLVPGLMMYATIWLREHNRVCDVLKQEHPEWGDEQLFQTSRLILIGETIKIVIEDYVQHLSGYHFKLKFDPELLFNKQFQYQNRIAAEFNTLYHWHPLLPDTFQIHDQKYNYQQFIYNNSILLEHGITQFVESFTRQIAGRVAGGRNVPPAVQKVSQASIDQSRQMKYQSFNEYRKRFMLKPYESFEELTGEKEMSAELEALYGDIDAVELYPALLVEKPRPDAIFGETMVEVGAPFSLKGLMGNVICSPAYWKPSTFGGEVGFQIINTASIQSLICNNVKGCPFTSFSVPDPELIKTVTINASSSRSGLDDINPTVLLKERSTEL
Method: as §1, §2

[3] = Cytotoxicity determination by CCK-8; format: cell-based; settings: mouse, RAW264.7 macrophage cells, RAW264.7 cells
Method: (§3) RAW264.7 mouse macrophages were purchased from Zhongqiao Xinzhou and cultured in DMEM supplemented with 10% fetal bovine serum (FBS) and 1% penicillin/streptomycin in a 37 °C, 5% CO2 incubator. The cells were passaged every two days to maintain the monolayer cell state.
The CCK-8 kit was used to determine the cytotoxicity of the target compounds (1–5) to RAW264.7 cells. The well-growing cells were subcultured in a 96-well plate. After the cells adhered to the wall, the experimental group was added with a medium containing different concentrations of compounds to make the final concentration reach 5, 10, 20, 40, 80, 160 and 320 μmoL/L. The control group was added with a medium without compound, and a blank group without cells or compound was set at the same time. After culturing in a constant temperature incubator for a period, CCK-8 solution was added to produce yellow formazan product. The OD value was measured by the microplate reader at the detection wavelength of 450 nm, and the cell survival rate was calculated. The cell survival rate formula is as follows:(1) Cell Survival Rate %=ODe−ODb/ODc−ODb×100% where ODe was the OD value of the experimental group, ODb was the OD value of the blank group, and ODc was the OD value of the control group.

[4] = tested on: NO release from RAW264.7 cells induced by LPS; experiment: NO content in supernatant of LPS-induced RAW264.7 cells (Griess); format: cell-based, mouse; settings: for inhibition of NO production: 80 μM, LPS 1 ug/mL, 24 h, RAW264.7; for inhibition of NO release: LPS-stimulated RAW264.7, concentration not stated
Method: NO is an important indicator to predict the anti-inflammatory effects of drugs. It has been identified as a proinflammatory cytokine in various inflammatory diseases. NO can induce vasodilation, recruit neutrophils and […] the activation of mast cells, leading to tissue damage. It is essential to reduce the production of NO for inflammatory release. To explore the anti-inflammatory effects of the five compounds, the LPS-induced inflammatory response of RAW264.7 cells was carried out. The NO content in the cell supernatant was measured by the Griess method to evaluate the inhibitory effects of these five compounds on NO production.
as §3
(§4) The RAW264.7 cells in the logarithmic growth phase were seeded in a 24-well plate and placed in a 37 °C, 5% CO2 constant temperature incubator for culture. After 24 h, the culture medium was discarded. The blank group was added with 10% FBS DMEM 1 mL. The group was added with a medium containing 1 ug/mL LPS, and the experimental group was added with LPS and different concentrations of the target compound to make the final volume 1 mL. After 24 h of culture, the cell supernatant was taken and stored in a refrigerator at −20 °C for later use. The Griess kit was used to determine the concentration of NO in the supernatant, and a double antibody sandwich ELISA kit was used to detect TNF-α and IL-1β.

[5] = tested on: TNF-α secretion in RAW264.7 cells induced by LPS; experiment: TNF-α content in supernatant of LPS-induced RAW264.7 cells (ELISA); format: cell-based, mouse
Method: Tumor necrosis factor-α (TNF-α) is a pleiotropic proinflammatory cytokine, known for its proinflammatory activity. To explore the inhibitory effects of five compounds on TNF-α, ELISA was used to determine the content of inflammatory factor TNF-α in the supernatant of RAW264.7 cells stimulated by LPS. RAW264.7 cells secreted a large amount of inflammatory-factor TNF-α 24 h after LPS (1 ug/mL) induction.
as §3, §4

[6] = 80 μM, LPS 1 ug/mL, 24 h, RAW264.7, vs model group
[7] = LPS-stimulated RAW264.7, concentration not stated

SMILES | IC50 [1] | IC50 [2] | CC50 [3] | inhibition of NO production [4] | inhibition of NO release [4] | inhibition of TNF-α secretion ([5]; 20 μM, LPS 1 ug/mL, 24 h, RAW264.7, vs model group) | inhibition of TNF-α secretion [5, 6] | inhibition of TNF-α secretion [5, 7]
CN1CC(=O)N(C(=O)/C=C/c2ccco2)C1=O [Compound 2, (E)-3-(3-(furan-2-yl)acryloyl)-1-methylimidazolidine-2,4-dione] | 56 ± 6 µM | 204 ± 10 µM | 329 µM | showed a significant effect on NO | significantly inhibit the release of NO | no obvious inhibitory effect on TNF-α | significantly reduce the secretion of TNF-α | reduce the secretion of TNF-α
CC(=O)Oc1ccc(/C=C/C(=O)N2C(=O)CN(C)C2=O)cc1 [Compound 4, (E)-4-(3-(3-methyl-2,5-dioxoimidazolidin-1-yl)-3-oxoprop-1-en-1-yl)phenyl acetate] | 37 ± 4 µM | 126 ± 12 µM | 302 µM | showed a significant effect on NO | significantly inhibit the release of NO; also recorded: reduced the release of NO | – | significantly reduce the secretion of TNF-α; also recorded: most significant | reduce the secretion of TNF-α; also recorded: significantly inhibited the secretion of inflammatory factors TNF-α
